According to patent US9096536B2, “Asymmetrically substituted anthrapyridazone derivatives as cytostatics” (BS-154 S.P. ZO.O., priority 2011, dated 2015):
In brackets after ≈: the same amount, converted by molar mass. Read-outs that look alike come from different tables or passages of the source.

Columns and labels:
[1] = tested on: human breast cancer cell line MCF7; assay: Cytostatic activity in vitro, breast cancer MCF7; assay type: cell-based; conditions: 72 h continuous exposure
Description: (§1) It should be mentioned that resistance index is above one order of magnitude better in comparison with doxorubicin and mitoxantrone.

[2] = tested on: human prostate cancer cell line LNCaP; assay: Cytostatic activity in vitro, prostate cancer LNCaP; assay type: cell-based; conditions: 72 h continuous exposure
Description: (§2) Table 5 presents activity in vitro of anthrapiridazone derivatives towards three cell lines of prostate cancer, naturally multidrug resistant, in comparison with references doxorubicin, mitoxantrone and taxol.

HT29/MIT = assay: Cytostatic activity in vitro, mitoxantrone-induced resistant subline HT29/MIT; assay type: cell-based, human; conditions: for IC50: 72 h continuous exposure; for RI resistance index HT29/MIT: IC50(resistant cells)/IC50(sensitive cells), HT29/MIT vs HT29
Description: (§3) Table 7 presents activity in vitro of selected anthrapyridazone derivatives according to the invention towards sensitive and resistant (MDR-1 type) cell line of human colon adenocarcinoma with resistance induced by mitoxantrone.

[3] = tested on: human prostate cancer cell line DU145; assay: Cytostatic activity in vitro, prostate cancer DU145; assay type: cell-based; conditions: 72 h continuous exposure
Description: as §2

[4] = tested on: human prostate cancer cell line PC3; assay: Cytostatic activity in vitro, prostate cancer PC3; assay type: cell-based; conditions: 72 h continuous exposure
Description: as §2

HL60/DX [5] = assay: Substrate properties: activity against HL60/DX in the presence of BSO (MRP pump inhibitor); assay type: cell-based, human; conditions: FIG. 3
Description: Activity in vitro against human promyelolytic leukemia HL60/DX in the presence of D-L-buthionine-(S,R)-sulphoximine (BSO), MRP pump inhibitor.

HL60/VINC [6] = assay: Substrate properties: activity against HL60/VINC in the presence of cyclosporine A (MDR-1 pump inhibitor); assay type: cell-based, human; conditions: FIG. 2
Description: FIG. 2 shoes experimentally determined substrate properties of selected antgraoyridazone derivatives vs. Doxorubicin and Mitroxantrone. Activity in vitro against human promyelacytic leykemia cell line HL60/VINC in the presence of cyclosporine A (MDR-1 pump inhibitor).

[7] = tested on: human promyelocytic leukemia cell line HL-60; assay: Cytostatic activity in vitro, HL-60 sensitive line; assay type: cell-based; conditions: read-out: HL60 IC50
Description: (§4) Tables 3 and 4 show cytostatic activity in vitro of 2,6-disubstituted and 2- or 6-monosubstituted (Tab.3), and of 2,5-disubstituted-(Tab.-4) tetracyclic anthrapyridazone derivatives using leukemia cell line HL-60 and the resistant cell sublines with resistance induced by vincristine (MDR-1) or doxorubicin (MRP). Activity of compounds is differentiated depending on their structure, but in all cases resistance indexes are more advantageous in comparison with reference compounds: doxorubicin and mitoxantrone.

MCF7/DX = assay: Cytostatic activity in vitro, resistant breast cancer subline MCF7/DX (MDR-1); assay type: cell-based, human; conditions: for IC50: 72 h continuous exposure; for RI resistance index MCF7/DX: IC50(resistant cells)/IC50(sensitive cells), MCF7/DX vs MCF7
Description: as §1

HL60/DX [8] = assay: Cytostatic activity in vitro, doxorubicin-induced resistant subline (MRP); assay type: cell-based, human; conditions: for RI resistance index HL60/DX: IC50(resistant cells)/IC50(sensitive cells)
Description: as §4

[9] = tested on: human colon adenocarcinoma HT29; assay: Cytostatic activity in vitro, colon adenocarcinoma HT29; assay type: cell-based; conditions: 72 h continuous exposure
Description: as §3

CT-DNA = assay: Interaction with isolated CT-DNA, fluorescence competition with ethidium bromide; assay type: binding; conditions: for IC50: 50% decrease in fluorescence intensity of DNA-bromide ethydine complex; for Kapp relative constant of DNA-compound bonding: Kapp = (1.26/C50) × KEtBr, KEtBr = 10^7M
Description: It could be supposed that this property explains cytostatic activity of compounds. In Table 9 there are presented quantitative data on the affinity to DNA of tested compounds using the fluorescence method and competitive affinity to DNA of bromine ethydine and tested compounds.

HL60/VINC [10] = assay: Cytostatic activity in vitro, vincristine-induced resistant subline (MDR-1); assay type: cell-based, human; conditions: for RI resistance index HL60/VINC: HL60/VINC vs HL60, 72 h
Description: as §4

[11] = tested on: lymphoblastic leukemia CCRF-CEM; assay: Cytostatic activity, panel: lymphoblastic leukemia CCRF-CEM; assay type: cell-based; conditions: 72 h continuous exposure
Description: (§5) Tables 8A and 8B present cytostatic activity in vitro of selected anthrapyridazone derivatives according to the invention against panel of sensitive and resistant cell lines, in comparison with doxorubicin, cisplatine and mitoxantrone.

LoVo/DX = assay: Cytostatic activity, panel: LoVo/DX resistant to doxorubicin; assay type: cell-based; conditions: for RI LoVo LoVo/DX: IC50(resistant cells)/IC50(sensitive cells)
Description: as §5

CEM/C2 = assay: Cytostatic activity, panel: CEM/C2 resistant to camptotecine; assay type: cell-based
Description: as §5

HL60/MX2 = assay: Cytostatic activity, panel: HL60/MX2 resistant to mitoxantrone; assay type: cell-based
Description: as §5

MES-SA/DX5 = assay: Cytostatic activity, panel: MES-SA/DX5 resistant to doxorubicin; assay type: cell-based; conditions: for RI MES-SA MES-SA/DX5: IC50(resistant cells)/IC50(sensitive cells)
Description: as §5

[12] = tested on: promyelolytic leukemia HL-60; assay: Cytostatic activity, panel: promyelolytic leukemia HL-60; assay type: cell-based; conditions: 72 h continuous exposure
Description: as §5

uterus cancer MES-SA = assay: Cytostatic activity, panel: uterus cancer MES-SA; assay type: cell-based; conditions: 72 h continuous exposure
Description: as §5

colon cancer LoVo = assay: Cytostatic activity, panel: colon cancer LoVo; assay type: cell-based; conditions: 72 h continuous exposure
Description: as §5

[13] = 50% inhibition of cell growth after 72 h continuous exposure
[14] = IC50(resistant cells)/IC50(sensitive cells)
[15] = Homo sapiens, HL-60, 96 h continuous exposure

SMILES | IC50 [2] | RI resistance index HT29/MIT (HT29/MIT) | IC50 [3] | IC50 [4] | Effect of MRP protein inhibitor (BSO) on cytostatic activity (HL60/DX [5]) | Effect of blocking MDR-1 pump with cyclosporine A (CSA) on cytostatic activity (HL60/VINC [6]) | IC50 [7, 13] | RI resistance index MCF7/DX (MCF7/DX) | IC50 (HL60/DX [8]; 72 h continuous exposure) | RI resistance index HL60/DX (HL60/DX [8]; HL60/DX vs HL60, 72 h) | IC50 (CT-DNA) | Kapp relative constant of DNA-compound bonding (CT-DNA) | IC50 (HL60/VINC [10]; 72 h continuous exposure) | RI resistance index HL60/VINC (HL60/VINC [10]; [14]) | RI LoVo LoVo/DX (LoVo/DX) | RI MES-SA MES-SA/DX5 (MES-SA/DX5) | further results
CN(C)CCn1nc2c3c(c(NCCN)ccc3c1=O)C(=O)c1ccccc1-2 [BS-121, 2-[2-(Dimethylamino)ethyl]-6-[2-(aminoethyl)amino)-2,7-dihydro-3H-dibenzo[de,h]cynnoline-3,7-dione] | 5.5 ± 0.7 nM | 4.1 | 11.3 ± 2.6 nM | 37.6 ± 8.1 nM | only partially | does not essentially affect the cytostatic activity | 1.3 ± 0.1 nM | 1.1 | 564 ± 72 nM | 433.8 | 260 ± 20 nM | 4.83e+07 M⁻¹ | 14.2 ± 1.7 nM | 10.9 | – | – | IC50 [1]: 39.6 ± 0.8 nM; IC50 (HT29/MIT): 39.4 ± 4.3 nM; IC50 (MCF7/DX): 45.3 ± 8.1 nM; IC50 [9]: 9.7 ± 1 nM
N.N.[Cl][Pt][Cl] [Cisplatina] | – | – | – | – | – | – | – | – | – | – | – | – | – | – | 1.6 | 1.5 | IC50 CCRF-CEM [11]: 1.44 ± 0.49 µg/mL; IC50 LoVo/DX (LoVo/DX; 72 h continuous exposure): 2.51 ± 0.38 µg/mL; IC50 CEM/C2 (CEM/C2; 72 h continuous exposure): 0.44 ± 0.19 µg/mL; RI CCRF-CEM CEM/C2 (CEM/C2; [14]): 0.3; IC50 HL60/MX2 (HL60/MX2; 72 h continuous exposure): 0.56 ± 0.30 µg/mL; RI HL60 HL60/MX2 (HL60/MX2; [14]): 2.5; IC50 MES-SA/DX5 (MES-SA/DX5; 72 h continuous exposure): 3.29 ± 0.15 µg/mL; IC50 HL60 [12]: 0.22 ± 0.12 µg/mL; IC50 MES-SA (uterus cancer MES-SA): 2.26 ± 0.58 µg/mL; IC50 LoVo (colon cancer LoVo): 1.59 ± 0.31 µg/mL
COc1cccc2c1C(=O)c1c(O)c3c(c(O)c1C2=O)C[C@@](O)(C(=O)CO)C[C@@H]3O[C@H]1C[C@H](N)[C@H](O)[C@H](C)O1 [Doxorubicin, reference compound] | – | 1.5 | – | – | essentially influences the cytostatic activity | has positive influence on maintaining the cytostatic activity | – | 49.1 | – | 592.8 | 80 nM | 1.5e+08 M⁻¹ | – | 55.1 | 54.7 | 181.2 | IC50 ([1]; Homo sapiens, MCF7): 19 ± 3.3 nM; IC50 (LoVo/DX; LoVo/DX, 72 h continuous exposure): 12.1 µg/mL (≈ 22.2 µM); IC50 ([2]; Homo sapiens, LNCaP): 22.4 ± 1.9 nM; IC50 (HT29/MIT; Homo sapiens, HT-29): 97.1 ± 20.9 nM; IC50 ([3]; Homo sapiens, DU-145): 38 ± 7.6 nM; IC50 ([4]; Homo sapiens): 106 ± 7 nM; IC50 (MES-SA/DX5; Homo sapiens, MES-SA/Dx5, 72 h continuous exposure): 13.6 µg/mL (≈ 25 µM); IC50 ([7]; Homo sapiens, HL-60, 50% inhibition of cell growth after 72 h continuous exposure): 16 ± 1 nM; IC50 [7, 15]: 9.5 ± 2 nM; IC50 (MCF7/DX; Homo sapiens, MCF7/DX): 932 ± 145 nM; IC50 (HL60/DX [8]; Homo sapiens, HL-60, 72 h continuous exposure): 9480 ± 1300 nM; IC50 (HL60/DX [8]; [15]): 1860 ± 143 nM; RI resistance index HL60/DX (HL60/DX [8]; 96 h): 195.7; IC50 ([9]; Homo sapiens, HT-29): 64.5 ± 19.2 nM; IC50 (uterus cancer MES-SA; Homo sapiens, MES-SA): 0.0705 µg/mL (≈ 0.13 µM); IC50 (colon cancer LoVo; Homo sapiens, LoVo): 0.224 µg/mL (≈ 0.413 µM); IC50 (HL60/VINC [10]; Homo sapiens, HL60/vinc, 72 h continuous exposure): 882 ± 68 nM; IC50 (HL60/VINC [10]; Homo sapiens, HL60/vinc, 96 h continuous exposure, read-out: HL60VINC IC50): 734 ± 72 nM; RI resistance index HL60VINC (HL60/VINC [10]; IC50(resistant cells)/IC50(sensitive cells), 96 h): 77.3
O=C1c2ccccc2-c2n[nH]c(=O)c3ccc(NCCNCc4ccccc4)c1c23 [PDZ-10, 6-(2-Benzylaminoetyloamino)-2,7-dihydro-3H-dibenzo[de,h]cynnoline-3,7-dione] | 1550 ± 363 nM | – | 2090 ± 583 nM | 3010 ± 264 nM | – | – | 758 ± 115 nM | – | 2770 ± 494 nM | 3.7 | 3150 ± 150 nM | 4e+06 M⁻¹ | 1160 ± 93 nM | 1.5 | – | – | –
CN(C)CCn1nc2c3c(c(NCC(=O)N(C)C)ccc3c1=O)C(=O)c1ccccc1-2 [PDZ-12, 2-[2-(Dimethylamino)ethyl]-6-[(N,N-dimethylacetamido)amino]-2,7-dihydro-3H-dibenzo[de,h]cynnoline-3,7-dione] | 237 ± 45 nM | – | 169 ± 47 nM | 947 ± 37 nM | – | – | 113 ± 7 nM | – | 2680 ± 768 nM | 23.7 | 2640 ± 290 nM | 4.8e+06 M⁻¹ | 947 ± 111 nM | 8.4 | – | – | –
